Results reported in patent US20250140406A1, “CLASSIFYING TUMORS AND PREDICTING RESPONSIVENESS” (Oncocyte Corporation, priority 2022, published 2025).
Square brackets hold non-standard residues; d marks the D form. Peptide text beside a SMILES is read from it.

Legend:
[1] = tested on: cancer cell lines classified IM, MSL, M; test: PRISM screen compound sensitivity correlated with IM, MSL and M subtype of cell lines (101 gene signature); format: cell-based; details: for IM Corr test: correlation of PRISM compound sensitivity with IM subtype correlation; for M Corr test: correlation of PRISM compound sensitivity with M subtype correlation; for MSL Corr test: correlation of PRISM compound sensitivity with MSL subtype correlation; for TNBCType train: 101 gene signature
[2] = tested on: cancer cell lines, DetermaIO classes; test: Association of PRISM compound sensitivity with DetermaIO (DTIO) cell line classes; format: cell-based
[3] = correlation of PRISM compound sensitivity with DTIO; test cell set (188 cell lines)
[4] = correlation of PRISM compound sensitivity with DTIO; training cell set (371 cell lines)
[5] = correlation of PRISM compound sensitivity with DTIO (DetermaIO); test cell set (188 cell lines)
[6] = correlation of PRISM compound sensitivity with DTIO (DetermaIO); training cell set (371 cell lines)
[7] = subtype (IM, MSL or M) with which compound sensitivity is negatively correlated, training cell set (371 cell lines)
[8] = correlation of PRISM compound sensitivity with DTIO; test cell set
[9] = correlation of PRISM compound sensitivity with DTIO; training cell set
[10] = subtype (IM, MSL or M) with which PRISM compound sensitivity is negatively correlated, training cell set
[11] = correlation of compound sensitivity with DetermaIO (DTIO), test set
[12] = correlation of compound sensitivity with DetermaIO (DTIO), training set
[13] = correlation of compound sensitivity with DTIO; test set
[14] = correlation of compound sensitivity with DTIO; training set

| SMILES | IM Corr test ([1]; test cell set (188 cell lines)) | M Corr test ([1]; test cell set (188 cell lines)) | MSL Corr test ([1]; test cell set (188 cell lines)) | DTIO Corr test [2, 8] | DTIO Corr train [2, 9] | IM Corr test ([1]; test cell set) | M Corr test ([1]; test cell set) | MSL Corr test ([1]; test cell set) | further results |
| --- | --- | --- | --- | --- | --- | --- | --- | --- | --- |
| C#Cc1cccc2c1c(C(=O)c1ccc(Cn3c(C)nc4cnccc43)c(F)c1)cn2C(=O)N(C)C [ABT-491] | −0.08486 | 0.04621 | 0.009812 |  |  |  |  |  | DTIO Corr test [2, 3]: −0.1207; DTIO Corr train [2, 4]: −0.1065 |
| C/C(=N\NC(=O)[C@H]1C(=O)NC[C@@H]1c1ccccc1)c1cccc(Br)c1 [AC-264613] | −0.07621 | 0.0938 | 0.002402 |  |  |  |  |  | DTIO Corr test [2, 5]: −0.03521; DTIO Corr train [2, 6]: −0.07682 |
| C[C@H](Nc1ncnc2[nH]cnc12)c1cc2ccc(F)cc2nc1-c1ccccn1 [AMG319] | 0.07986 | −0.1713 | −0.08814 | 0.03283 | −0.03859 |  |  |  | TNBCType train [1, 7]: MSL |
| C[C@H](Nc1ncnc2[nH]cnc12)c1cc2ccc(F)cc2nc1-c1ccccn1 [AMG-319] |  |  |  | −0.04463 | −0.0218 | −0.00518 | −0.1202 | −0.07748 | TNBCType train [1, 10]: MSL |
| CCOc1ccc(-n2c([C@@H](C)N(Cc3cccnc3)C(=O)Cc3ccc(OC(F)(F)F)cc3)nc3ncccc3c2=O)cc1 [AMG-487] | −0.08583 | 0.04766 | 0.1557 |  |  |  |  |  | DTIO Corr test [2, 5]: −0.01666; DTIO Corr train [2, 6]: −0.0821 |
| C[C@@H]1COC(Nc2ccc3ncnc(Nc4ccc(OCc5nccs5)c(Cl)c4)c3c2)=N1 [ARRY-334543] |  |  |  | −0.03109 | −0.05992 | −0.1679 | 0.2632 | 0.3622 | DTIO Corr test [2, 11]: −0.03109; DTIO Corr train [2, 12]: −0.05992 |
| Clc1ccc(C2(c3ccc(-c4cn[nH]c4)cc3)CCNCC2)cc1 [AT7867] | 0.04603 | −0.1665 | −0.1142 | 0.003574 | 0.04812 |  |  |  | TNBCType train [1, 7]: MSL |
| C=CC(=O)Nc1cc2c(Nc3ccc(F)c(Cl)c3)ncnc2cc1C#CC(C)(C)N1CCN(C)CC1.Cc1ccc(S(=O)(=O)O)cc1.Cc1ccc(S(=O)(=O)O)cc1 [AV-412] |  |  |  | −0.04654 | −0.09469 | −0.1668 | 0.2317 | 0.3378 | DTIO Corr test [2, 13]: −0.04654; DTIO Corr train [2, 14]: −0.09469 |
| Cc1cc(Nc2nc(N[C@@H](C)c3ccc(F)cc3)c(C#N)cc2F)n[nH]1 [AZ960] | −0.0625 | 0.008122 | 0.05509 |  |  |  |  |  | DTIO Corr test [2, 5]: −0.07766; DTIO Corr train [2, 6]: −0.135 |
| Cc1ccc(NC(=O)c2cccc(C(C)(C)C#N)c2)cc1Nc1ccc2ncn(C)c(=O)c2c1 [AZ-628] | 0.3356 | −0.2327 | 0.1133 | 0.3247 | 0.1908 |  |  |  | DTIO Corr test [2, 11]: 0.3247; DTIO Corr train [2, 12]: 0.1908; DTIO Corr test ([2]; correlation of compound sensitivity with DetermaIO (DTIO); test set): 0.3247; DTIO Corr train ([2]; correlation of compound sensitivity with DetermaIO (DTIO); training set): 0.1908 |
| C=CCNC(=O)c1cc([N+](=O)[O-])cc2c(=O)[nH]c(Nc3ccc(Cl)c(Cl)c3)nc12 [AZ-10417808] |  |  |  | −0.05539 | −0.1839 | −0.06367 | 0.03341 | 0.2588 |  |
| N[C@@H]1CCCN(c2c(/C=C3\SC(=O)NC3=O)cccc2-c2ccccc2)C1 [AZD1208] |  |  |  | 0.02868 | 0.03472 | 0.06359 | −0.02916 | 0.004575 |  |
| C[C@@H](Oc1cc(NS(=O)(=O)N2CCC2)nc(SCc2cccc(F)c2F)n1)[C@@H](O)CO [AZD5069] |  |  |  | −0.00725 | −0.151 | −0.07882 | 0.1362 | 0.02875 |  |
| Cc1ncc(-c2ccnc(Nc3ccc(S(C)(=O)=O)cc3)n2)n1C(C)C [AZD5438] | −0.1498 | 0.0844 | 0.1271 |  |  |  |  |  | DTIO Corr test [2, 5]: −0.1301; DTIO Corr train [2, 6]: −0.08372 |
| Cc1nc(C)c(-c2ccc(C3CCC(CC(=O)O)CC3)cc2)nc1C(N)=O (centres unmarked) [AZD7687] |  |  |  | −0.03167 | −0.02143 | −0.05809 | 0.08898 | 0.08286 |  |
| CNC(=O)CN1CCC(Oc2cc3c(Nc4cccc(Cl)c4F)ncnc3cc2OC)CC1 [AZD8931] | −0.09307 | 0.2208 | 0.4034 |  |  |  |  |  | DTIO Corr test [2, 3]: 0.04159; DTIO Corr train [2, 4]: −0.08735 |
| Cc1c(-c2ccnn2C)cc(C(=O)NCc2ccc(S(C)(=O)=O)cn2)c(=O)n1-c1cccc(C(F)(F)F)c1 [AZD9668] |  |  |  | −0.00254 | 0.06934 | 0.06774 | −0.1139 | 0.009005 |  |
| O=C(c1ccc(Cl)o1)N1CC2CNCC2C1 (centres unmarked) [AZD 1446] | −0.01023 | −0.00226 | −0.09838 | −0.00648 | −0.01778 |  |  |  | TNBCType train [1, 7]: MSL |
| Cc1ccc(S(=O)(=O)/C=C/C#N)cc1 [BAY-11-7082] | 0.07793 | −0.1474 | 0.0317 | 0.04014 | −0.00647 |  |  |  |  |
| Cc1oc2nc3c(c(NC(=O)CN4CCCC4=O)c2c1C)CCCC3 [BCI-540] |  |  |  | 0.01234 | −0.02488 | 0.07689 | −0.08152 | −0.1815 | TNBCType train [1, 10]: MSL |
| CC(C)CCN1c2nc(Nc3cc(F)c(O)c(F)c3)ncc2N(C)C(=O)C1C (centres unmarked) [BI-D1870] | −0.01584 | 0.01001 | 0.02005 | 0.01854 | −0.09163 |  |  |  |  |
| C/C(=C\C(=O)Nc1ccccc1C(=O)O)c1ccc2ccccc2c1 [BIBR-1532] | −0.1712 | 0.141 | −0.1482 | −0.226 | −0.05255 |  |  |  | TNBCType train [1, 7]: MSL |
| CN1C(=O)N(c2cc(Cl)cc(Cl)c2)C(=O)[C@]12CN(Cc1cc(C(=O)O)cs1)C[C@H]2c1ccc(C#N)cc1 [BMS-587101] | −0.05699 | 0.1367 | −0.03676 | −0.08591 | 0.01986 |  |  |  | TNBCType train [1, 7]: MSL |
| Cc1c(NC(=O)OC[C@@H]2COCCN2)cn2ncnc(Nc3ccc4c(cnn4Cc4cccc(F)c4)c3)c12 [BMS-599626] | −0.1901 | 0.2776 | 0.4191 | −0.02871 | −0.07697 |  |  |  | DTIO Corr test [2, 11]: −0.02871; DTIO Corr train [2, 12]: −0.07697 |
| COc1cccc(Nc2ncnn3ccc(CN4CC[C@@H](N)[C@H](O)C4)c23)c1 [BMS-690514] | −0.1648 | 0.2486 | 0.3466 |  |  |  |  |  | DTIO Corr test [2, 5]: 0.01346; DTIO Corr train [2, 6]: −0.1666; DTIO Corr test ([2]; correlation of compound sensitivity with DTIO, test set): 0.01346; DTIO Corr train ([2]; correlation of compound sensitivity with DTIO, training set): −0.1666; DTIO Corr test [2, 13]: 0.01346; DTIO Corr train [2, 14]: −0.1666 |
| COc1cc(C(=O)c2c(C)oc3c(O)c(OC)ccc23)cc(OC)c1OC [BNC105] |  |  |  | −0.1135 | −0.1119 | −0.07446 | −0.08585 | −0.09188 | TNBCType train [1, 10]: MSL |
| O=C1/C(=C/c2ccccc2)C[C@@]2(O)[C@H]3Cc4ccc(O)c5c4[C@@]2(CCN3CC2CC2)[C@H]1O5 [BNTX] | −0.1371 | 0.09323 | 0.1062 | −0.1085 | −0.1416 |  |  |  |  |
| CC(C)C[C@@H]1NC(=O)[C@@H](C(C)C)NC(=O)[C@@H]2CCCN2C(=O)[C@@H](CC(=O)O)NC(=O)[C@@H](Cc2c[nH]c3ccccc23)NC1=O [BQ-123] (cyclo(L[dW][dD]P[dV])) | 0.0449 | −0.1374 | −0.1421 | 0.07641 | 0.04394 |  |  |  | TNBCType train [1, 7]: MSL |
| O=C(Nc1cccc(Nc2ncc(Br)c(NCCc3cnc[nH]3)n2)c1)N1CCCC1 [BX-912] |  |  |  | 0.03523 | 0.04083 | 0.1542 | −0.2367 | −0.03732 |  |
| Cc1ccc(-n2sc(=O)n(Cc3ccc(F)cc3)c2=O)cc1 [CCG-50014] | 0.03964 | −0.1198 | −0.2063 | −0.03813 | 0.0404 |  |  |  |  |
